Experimental data: ChEMBL document CHEMBL1201862, “PubChem BioAssay data set” (2004)
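1) Cells in 96-well plates. 2) Compound, 48 h, 5 concentrations. 3) Linear interpolation between surrounding doses. 4) Unreached endpoint = highest concentration. At the GI50, growth is halved.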 The source made the active and inactive calls. No stated cut-off is given here; in the data, active = GI50 up to about 1.1 µM and inactive = higher.

Key:
Assay in all cases: inhibition of tumour cell growth, NCI panel, 48 h
DMS-114 = test system: DMS-114
T47D = test system: T47D
UO-31 = test system: UO-31
SNB-78 = test system: SNB-78
SF-539 = test system: SF-539
OVCAR-5 = test system: OVCAR-5
M19-MEL = test system: M19-MEL
MCF7 = test system: MCF7
HOP-92 = test system: HOP-92
NCI-H23 = test system: NCI-H23
MOLT-4 = test system: MOLT-4
OVCAR-4 = test system: OVCAR-4
RXF 393 = test system: RXF 393
Hs-578T = test system: Hs-578T
HCT-15 = test system: HCT-15
SK-MEL-28 = test system: SK-MEL-28
HT-29 = test system: HT-29
786-0 = test system: 786-0
NCI-H460 = test system: NCI-H460
SNB-75 = test system: SNB-75
OVCAR-8 = test system: OVCAR-8
SNB-19 = test system: SNB-19
SK-MEL-2 = test system: SK-MEL-2
HL-60 = test system: HL-60
M14 = test system: M14
SK-MEL-5 = test system: SK-MEL-5
MDA-N = test system: MDA-N
BT-549 = test system: BT-549
IGROV-1 = test system: IGROV-1
DU-145 = test system: DU-145
RPMI-8226 = test system: RPMI-8226
CAKI-1 = test system: CAKI-1
KM-20L2 = test system: KM-20L2
SF-268 = test system: SF-268
OVCAR-3 = test system: OVCAR-3
UACC-257 = test system: UACC-257
SK-OV-3 = test system: SK-OV-3
MDA-MB-435 = test system: MDA-MB-435
ACHN = test system: ACHN
U-251 = test system: U-251
HCT-116 = test system: HCT-116
HOP-62 = test system: HOP-62
SF-295 = test system: SF-295
NCI-H226 = test system: NCI-H226
SR = test system: SR
CCRF-CEM = test system: CCRF-CEM
A498 = test system: A498
TK-10 = test system: TK-10
Malme-3M = test system: Malme-3M
MDA-MB-231 = test system: MDA-MB-231
LOX IMVI = test system: LOX IMVI
NCI-H522 = test system: NCI-H522
HCC 2998 = test system: HCC 2998
A549 = test system: A549
EKVX = test system: EKVX
XF498 = test system: XF498
SN12C = test system: SN12C
COLO 205 = test system: COLO 205
SW-620 = test system: SW-620
LXFL 529 = test system: LXFL 529
UACC-62 = test system: UACC-62
NCI/ADR-RES = test system: NCI/ADR-RES
K562 = test system: K562
KM12 = test system: KM12
PC-3 = test system: PC-3
DLD-1 = test system: DLD-1
DMS-273 = test system: DMS-273

Question: Which GI50 (DMS-114) does the source give for `COC1=CC(=O)c2c(O)c3c(c(O)c2C1=O)C=C(C)OC3O` (configuration not stated) here?
Answer: 1230 nM (inactive)

Question: What about the GI50 (T47D) of the same compound?
Answer: 2130 nM (inactive)

Question: What about the GI50 (UO-31) of the same compound?
Answer: 4040 nM (inactive)

Question: And the GI50 (SNB-78)?
Answer: 1730 nM (inactive)

Question: And the GI50 (SF-539)?
Answer: 1580 nM (inactive)

Question: And the GI50 (OVCAR-5)?
Answer: 2430 nM (inactive)

Question: What about the GI50 (M19-MEL) of the same compound?
Answer: 224 nM (active)

Question: And the GI50 (MCF7)?
Answer: 390 nM (active)

Question: And the GI50 (HOP-92)?
Answer: 6840 nM (inactive)

Question: And the GI50 (NCI-H23)?
Answer: 838 nM (active)

Question: What about the GI50 (MOLT-4) of the same compound?
Answer: 1580 nM (inactive)

Question: And the GI50 (OVCAR-4)?
Answer: 1920 nM (inactive)

Question: And the GI50 (RXF 393)?
Answer: 1050 nM (active)

Question: And the GI50 (Hs-578T)?
Answer: 2640 nM (inactive)

Question: What about the GI50 (HCT-15) of the same compound?
Answer: 349 nM

Question: What about the GI50 (SK-MEL-28) of the same compound?
Answer: 1270 nM (inactive)

Question: And the GI50 (HT-29)?
Answer: 541 nM (active)

Question: What about the GI50 (786-0) of the same compound?
Answer: 3240 nM (inactive)

Question: What about the GI50 (NCI-H460) of the same compound?
Answer: 1350 nM (inactive)

Question: And the GI50 (SNB-75)?
Answer: 1570 nM (inactive)

Question: And the GI50 (OVCAR-8)?
Answer: 849 nM (active)

Question: What about the GI50 (SNB-19) of the same compound?
Answer: 2480 nM (inactive)

Question: And the GI50 (SK-MEL-2)?
Answer: 1960 nM (inactive)

Question: And the GI50 (HL-60)?
Answer: 731 nM (active)

Question: And the GI50 (M14)?
Answer: 281 nM (active)

Question: What about the GI50 (SK-MEL-5) of the same compound?
Answer: 269 nM (active)

Question: And the GI50 (MDA-N)?
Answer: 1660 nM (inactive)

Question: And the GI50 (BT-549)?
Answer: 2070 nM (inactive)

Question: What about the GI50 (IGROV-1) of the same compound?
Answer: 1980 nM (inactive)

Question: What about the GI50 (DU-145) of the same compound?
Answer: 1010 nM (active)

Question: And the GI50 (RPMI-8226)?
Answer: 1500 nM (inactive)

Question: What about the GI50 (CAKI-1) of the same compound?
Answer: 3520 nM (inactive)

Question: And the GI50 (KM-20L2)?
Answer: 365 nM (active)

Question: What about the GI50 (SF-268) of the same compound?
Answer: 2180 nM (inactive)

Question: What about the GI50 (OVCAR-3) of the same compound?
Answer: 1030 nM (active)

Question: What about the GI50 (UACC-257) of the same compound?
Answer: 240 nM (active)

Question: What about the GI50 (SK-OV-3) of the same compound?
Answer: 8450 nM (inactive)

Question: And the GI50 (MDA-MB-435)?
Answer: 1250 nM (inactive)

Question: What about the GI50 (ACHN) of the same compound?
Answer: 2100 nM (inactive)

Question: And the GI50 (U-251)?
Answer: 2480 nM (inactive)

Question: And the GI50 (HCT-116)?
Answer: 569 nM (active)

Question: And the GI50 (HOP-62)?
Answer: 2880 nM (inactive)

Question: What about the GI50 (SF-295) of the same compound?
Answer: 2090 nM (inactive)

Question: What about the GI50 (NCI-H226) of the same compound?
Answer: 2900 nM (inactive)

Question: And the GI50 (SR)?
Answer: 1840 nM (inactive)

Question: What about the GI50 (CCRF-CEM) of the same compound?
Answer: 1640 nM (inactive)

Question: And the GI50 (A498)?
Answer: 2120 nM (inactive)

Question: What about the GI50 (TK-10) of the same compound?
Answer: 2890 nM (inactive)

Question: What about the GI50 (Malme-3M) of the same compound?
Answer: 277 nM (active)

Question: And the GI50 (MDA-MB-231)?
Answer: 1760 nM (inactive)

Question: And the GI50 (LOX IMVI)?
Answer: 597 nM (active)

Question: What about the GI50 (NCI-H522) of the same compound?
Answer: 1450 nM (inactive)

Question: What about the GI50 (HCC 2998) of the same compound?
Answer: 1560 nM (inactive)

Question: What about the GI50 (A549) of the same compound?
Answer: 1420 nM (inactive)

Question: What about the GI50 (EKVX) of the same compound?
Answer: 7350 nM (inactive)

Question: And the GI50 (XF498)?
Answer: 1840 nM (inactive)

Question: What about the GI50 (SN12C) of the same compound?
Answer: 877 nM (active)

Question: And the GI50 (COLO 205)?
Answer: 222 nM (active)

Question: What about the GI50 (SW-620) of the same compound?
Answer: 828 nM (active)

Question: What about the GI50 (LXFL 529) of the same compound?
Answer: 1360 nM (inactive)

Question: And the GI50 (UACC-62)?
Answer: 859 nM (active)

Question: And the GI50 (NCI/ADR-RES)?
Answer: 1510 nM (inactive)

Question: What about the GI50 (K562) of the same compound?
Answer: 1440 nM (inactive)

Question: What about the GI50 (KM12) of the same compound?
Answer: 2210 nM (inactive)

Question: And the GI50 (PC-3)?
Answer: 2640 nM (inactive)

Question: What about the GI50 (DLD-1) of the same compound?
Answer: 665 nM (active)

Question: And the GI50 (DMS-273)?
Answer: 1010 nM (active)

Question: Which GI50 (DMS-114) does the source give for `O=C1CCC(=O)N1Cc1ccccc1/N=[N+](\[O-])c1ccccc1CN1C(=O)CCC1=O` here?
Answer: > 100000 nM (inactive)

Question: What about the GI50 (UO-31) of the same compound?
Answer: > 100000 nM (inactive)

Question: And the GI50 (SNB-78)?
Answer: > 100000 nM (inactive)

Question: And the GI50 (SF-539)?
Answer: > 100000 nM (inactive)

Question: And the GI50 (OVCAR-5)?
Answer: > 100000 nM (inactive)

Question: What about the GI50 (M19-MEL) of the same compound?
Answer: > 100000 nM (inactive)

Question: And the GI50 (NCI-H23)?
Answer: > 100000 nM (inactive)

Question: And the GI50 (MOLT-4)?
Answer: > 100000 nM (inactive)

Question: What about the GI50 (OVCAR-4) of the same compound?
Answer: > 100000 nM (inactive)

Question: What about the GI50 (RXF 393) of the same compound?
Answer: > 100000 nM (inactive)

Question: What about the GI50 (HCT-15) of the same compound?
Answer: > 100000 nM

Question: What about the GI50 (SK-MEL-28) of the same compound?
Answer: > 100000 nM (inactive)

Question: And the GI50 (HT-29)?
Answer: > 100000 nM (inactive)

Question: What about the GI50 (786-0) of the same compound?
Answer: > 100000 nM (inactive)

Question: What about the GI50 (NCI-H460) of the same compound?
Answer: > 100000 nM (inactive)

Question: What about the GI50 (SNB-75) of the same compound?
Answer: 10200 nM (inactive)

Question: And the GI50 (OVCAR-8)?
Answer: > 100000 nM (inactive)

Question: And the GI50 (SNB-19)?
Answer: > 100000 nM (inactive)

Question: And the GI50 (SK-MEL-2)?
Answer: > 100000 nM (inactive)

Question: And the GI50 (HL-60)?
Answer: > 100000 nM (inactive)

Question: What about the GI50 (M14) of the same compound?
Answer: > 100000 nM (inactive)

Question: And the GI50 (SK-MEL-5)?
Answer: > 100000 nM (inactive)

Question: And the GI50 (IGROV-1)?
Answer: > 100000 nM (inactive)

Question: And the GI50 (RPMI-8226)?
Answer: > 100000 nM (inactive)

Question: And the GI50 (KM-20L2)?
Answer: > 100000 nM (inactive)

Question: What about the GI50 (SF-268) of the same compound?
Answer: > 100000 nM (inactive)

Question: And the GI50 (OVCAR-3)?
Answer: > 100000 nM (inactive)

Question: And the GI50 (ACHN)?
Answer: > 100000 nM (inactive)

Question: And the GI50 (U-251)?
Answer: > 100000 nM (inactive)

Question: What about the GI50 (HCT-116) of the same compound?
Answer: > 100000 nM (inactive)

Question: What about the GI50 (HOP-62) of the same compound?
Answer: > 100000 nM (inactive)

Question: And the GI50 (SF-295)?
Answer: > 100000 nM (inactive)

Question: And the GI50 (SR)?
Answer: > 100000 nM (inactive)

Question: What about the GI50 (CCRF-CEM) of the same compound?
Answer: > 100000 nM (inactive)

Question: What about the GI50 (TK-10) of the same compound?
Answer: > 100000 nM (inactive)

Question: What about the GI50 (Malme-3M) of the same compound?
Answer: > 100000 nM (inactive)

Question: What about the GI50 (LOX IMVI) of the same compound?
Answer: > 100000 nM (inactive)

Question: And the GI50 (NCI-H522)?
Answer: > 100000 nM (inactive)

Question: What about the GI50 (HCC 2998) of the same compound?
Answer: > 100000 nM (inactive)

Question: And the GI50 (A549)?
Answer: > 100000 nM (inactive)

Question: What about the GI50 (EKVX) of the same compound?
Answer: > 100000 nM (inactive)

Question: What about the GI50 (XF498) of the same compound?
Answer: > 100000 nM (inactive)

Question: What about the GI50 (SN12C) of the same compound?
Answer: > 100000 nM (inactive)

Question: What about the GI50 (COLO 205) of the same compound?
Answer: > 100000 nM (inactive)

Question: What about the GI50 (SW-620) of the same compound?
Answer: > 100000 nM (inactive)

Question: And the GI50 (LXFL 529)?
Answer: > 100000 nM (inactive)

Question: And the GI50 (UACC-62)?
Answer: > 100000 nM (inactive)

Question: And the GI50 (K562)?
Answer: > 100000 nM (inactive)

Question: What about the GI50 (KM12) of the same compound?
Answer: > 100000 nM (inactive)

Question: What about the GI50 (DMS-273) of the same compound?
Answer: > 100000 nM (inactive)
